From DBAASP
Values after ≈ are worked out from the molar mass of the structure shown. Each block holds one compound with its values, some of them ahead of it.

What was measured:
Assay in all cases: ≥ marks a high value that may be exact or a test limit, other limits are often not marked, values filed in µg/mL are converted to µM
Candida albicans = tested on: Candida albicans
[1] = tested on: Candida krusei CGMCC 2.1857
[2] = tested on: Candida parapsilosis CGMCC 2.3989
[3] = tested on: Candida tropicalis CGMCC 2.1975
Escherichia coli 1005 = tested on: Escherichia coli 1005
[4] = tested on: Salmonella enterica subsp. enterica serovar Pullorum ATCC 7913
[5] = tested on: Salmonella enterica subsp. enterica serovar Typhimurium ATCC 14028
[6] = tested on: Staphylococcus aureus ATCC 25923
[7] = tested on: Staphylococcus aureus ATCC 29213
[8] = tested on: Staphylococcus aureus ATCC 43300
[9] = tested on: Staphylococcus epidermidis ATCC 12228
[10] = tested on: Listeria monocytogenes ATCC 19115
[11] = tested on: Staphylococcus aureus CMCC 26003
[12] = tested on: Aspergillus flavus KCTC 6905
[13] = tested on: Candida albicans CCARM 14001
[14] = tested on: Candida albicans CCARM 14004
[15] = tested on: Candida albicans CCARM 14007
[16] = tested on: Candida albicans CCARM 14020
[17] = tested on: Candida albicans KCTC 7270
[18] = tested on: Candida krusei CCARM 14017
[19] = tested on: Candida parapsilosis CCARM 14016
[20] = tested on: Colletotrichum gloeosporioides KCTC 6169
[21] = tested on: Fusarium graminearum KCTC 16656
[22] = tested on: Fusarium oxysporum KCTC 16909
[23] = tested on: Fusarium solani KCTC 6326
[24] = tested on: Fusarium verticillioides KCTC 6149
[25] = tested on: Trichoderma virens KCTC 16924
[26] = tested on: Trichoderma viride KCTC 16992
[27] = tested on: Trichophyton rubrum KCTC 6345
[28] = tested on: Acinetobacter baumannii Q12-0867
[29] = tested on: Acinetobacter baumannii Q13-0717
[30] = tested on: Campylobacter jejuni NCTC 11351
Campylobacter jejuni = tested on: Campylobacter jejuni
[31] = tested on: Enterococcus faecalis JH-2-2
Escherichia coli K-12 = tested on: Escherichia coli K-12
Escherichia coli = tested on: Escherichia coli
[32] = tested on: Klebsiella pneumoniae ATCC 700603
[33] = tested on: Klebsiella pneumoniae NCTC 13442
[34] = tested on: Klebsiella pneumoniae Q14-0095
[35] = tested on: Listeria monocytogenes NCTC 11994
[36] = tested on: Pseudomonas aeruginosa ATCC 27853
[37] = tested on: Pseudomonas aeruginosa PAO1
[38] = tested on: Pseudomonas aeruginosa Q14-0208
[39] = tested on: Pseudomonas aeruginosa Q14-0890
Pseudomonas aeruginosa = tested on: Pseudomonas aeruginosa
[40] = tested on: Salmonella typhimurium SL1344
[41] = tested on: Staphylococcus aureus MRSA-15
[42] = tested on: Staphylococcus aureus NCTC 12493
[43] = tested on: Staphylococcus aureus Q14-0320
[44] = tested on: Staphylococcus aureus Q14-0325
[45] = tested on: Staphylococcus aureus RN4220

MIC (Candida albicans): 11.3 µM (≈ 15.6 µg/mL)
MIC [1]: 4 µM (≈ 5.51 µg/mL)
MIC [2]: ≥ 64 µM
MIC [3]: 4 µM (≈ 5.51 µg/mL)
MIC (Escherichia coli 1005): 8 µM (≈ 11 µg/mL)
MIC [4]: ≥ 32 µM
MIC [5]: 4 µM (≈ 5.51 µg/mL)
MIC [6]: 4 µM (≈ 5.51 µg/mL)
MIC [7]: 8 µM (≈ 11 µg/mL)
MIC [8]: 4 µM (≈ 5.51 µg/mL)
MIC [9]: 4 µM (≈ 5.51 µg/mL)
SMILES: NC(=O)[C@H](Cc1ccccc1)NC(=O)[C@H](Cc1ccccc1)NC(=O)[C@H](CCCN=C(N)N)NC(=O)[C@H](CCCN=C(N)N)NC(=O)[C@H](Cc1ccccc1)NC(=O)[C@H](CCCN=C(N)N)NC(=O)[C@H](CCCN=C(N)N)NC(=O)[C@H](Cc1ccccc1)NC(=O)[C@@H](N)Cc1ccccc1 [FFRRFRRFF]

MIC [10]: ≥ 133 µM
MIC [11]: ≥ 133 µM
SMILES: CC[C@H](C)[C@H](NC(=O)[C@H](CCCN=C(N)N)NC(=O)[C@H](CCCN=C(N)N)NC(=O)[C@H](CC(C)C)NC(=O)[C@@H](N)Cc1ccccc1)C(=O)N[C@@H](CCCN=C(N)N)C(=O)N[C@H](C(N)=O)C(C)C [FLRRIRV]

MIC [12]: 2 µM (≈ 6.33 µg/mL)
MIC [13]: 8 µM (≈ 25.3 µg/mL)
MIC [14]: 8 µM (≈ 25.3 µg/mL)
MIC [15]: 8 µM (≈ 25.3 µg/mL)
MIC [16]: 8 µM (≈ 25.3 µg/mL)
MIC [17]: 8 µM (≈ 25.3 µg/mL)
MIC [18]: 4 µM (≈ 12.7 µg/mL)
MIC [19]: 8 µM (≈ 25.3 µg/mL)
MIC [20]: 1 µM (≈ 3.16 µg/mL)
MIC [21]: 4 µM (≈ 12.7 µg/mL)
MIC [22]: 2 µM (≈ 6.33 µg/mL)
MIC [23]: 1 µM (≈ 3.16 µg/mL)
MIC [24]: 2 µM (≈ 6.33 µg/mL)
MIC [25]: 4 µM (≈ 12.7 µg/mL)
MIC [26]: 1 µM (≈ 3.16 µg/mL)
MIC [27]: 2 µM (≈ 6.33 µg/mL)
SMILES: NCCCC[C@H](NC(=O)[C@H](CCCCN)NC(=O)[C@H](Cc1cnc[nH]1)NC(=O)[C@H](CCCCN)NC(=O)[C@H](CCCCN)NC(=O)[C@H](Cc1cnc[nH]1)NC(=O)[C@H](CCCCN)NC(=O)[C@H](CCCCN)NC(=O)[C@H](Cc1cnc[nH]1)NC(=O)[C@H](CCCCN)NC(=O)[C@H](CCCCN)NC(=O)[C@H](Cc1cnc[nH]1)NC(=O)[C@H](CCCCN)NC(=O)[C@H](CCCCN)NC(=O)[C@H](Cc1cnc[nH]1)NC(=O)[C@H](CCCCN)NC(=O)[C@H](CCCCN)NC(=O)[C@H](Cc1cnc[nH]1)NC(=O)[C@H](CCCCN)NC(=O)[C@H](CCCCN)NC(=O)[C@H](Cc1cnc[nH]1)NC(=O)[C@H](CCCCN)NC(=O)[C@H](CCCCN)NC(=O)[C@@H](N)Cc1cnc[nH]1)C(N)=O [HKKHKKHKKHKKHKKHKKHKKHKK]

MIC [12]: 16 µM (≈ 19.2 µg/mL)
MIC [13]: ≥ 64 µM
MIC [14]: ≥ 64 µM
MIC [15]: ≥ 64 µM
MIC [16]: ≥ 64 µM
MIC [17]: ≥ 64 µM
MIC [18]: 16 µM (≈ 19.2 µg/mL)
MIC [19]: ≥ 32 µM
MIC [20]: 8 µM (≈ 9.58 µg/mL)
MIC [21]: ≥ 32 µM
MIC [22]: ≥ 32 µM
MIC [23]: 16 µM (≈ 19.2 µg/mL)
MIC [24]: 16 µM (≈ 19.2 µg/mL)
MIC [25]: 16 µM (≈ 19.2 µg/mL)
MIC [26]: 16 µM (≈ 19.2 µg/mL)
MIC [27]: ≥ 32 µM
SMILES: NCCCC[C@H](NC(=O)[C@H](CCCCN)NC(=O)[C@H](Cc1cnc[nH]1)NC(=O)[C@H](CCCCN)NC(=O)[C@H](CCCCN)NC(=O)[C@H](Cc1cnc[nH]1)NC(=O)[C@H](CCCCN)NC(=O)[C@H](CCCCN)NC(=O)[C@@H](N)Cc1cnc[nH]1)C(N)=O [HKKHKKHKK]

MIC [28]: 26.3 µM (≈ 64 µg/mL)
MIC [29]: ≥ 52.7 µM
MIC [30]: ≥ 52.7 µM
MIC (Campylobacter jejuni): ≥ 52.7 µM
MIC [31]: ≥ 52.7 µM
MIC (Escherichia coli K-12): 26.3 µM (≈ 64 µg/mL)
MIC (Escherichia coli): 52.7 µM (≈ 128 µg/mL)
MIC [32]: 52.7 µM (≈ 128 µg/mL)
MIC [33]: ≥ 52.7 µM
MIC [34]: ≥ 52.7 µM
MIC [35]: ≥ 52.7 µM
MIC [36]: 52.7 µM (≈ 128 µg/mL)
MIC [37]: 52.7 µM (≈ 128 µg/mL)
MIC [38]: ≥ 52.7 µM
MIC [39]: 26.3 µM (≈ 64 µg/mL)
MIC (Pseudomonas aeruginosa): 13.2 µM (≈ 32 µg/mL)
MIC [40]: ≥ 52.7 µM
MIC [7]: > 52.7 µM
MIC [41]: ≥ 52.7 µM
MIC [42]: 26.3 µM (≈ 64 µg/mL)
MIC [43]: ≥ 52.7 µM
MIC [44]: 26.3 µM (≈ 64 µg/mL)
MIC [45]: ≥ 52.7 µM
SMILES: CC[C@H](C)[C@H](NC(=O)CNC(=O)[C@H](CCCN=C(N)N)NC(=O)CNC(=O)[C@H](CCCCN)NC(=O)[C@H](CC(N)=O)NC(=O)[C@H](CCCCN)NC(=O)[C@H](CC(=O)O)NC(=O)[C@H](CCCN=C(N)N)NC(=O)[C@H](CS)NC(=O)[C@H](Cc1ccc(O)cc1)NC(=O)[C@@H](NC(=O)[C@H](CCCCN)NC(=O)[C@H](CC(C)C)NC(=O)[C@H](CCCN=C(N)N)NC(=O)[C@@H](NC(=O)[C@H](Cc1ccccc1)NC(=O)[C@@H](N)CCCCN)C(C)C)[C@@H](C)CC)C(=O)N[C@@H](CO)C(=O)N[C@@H](Cc1ccccc1)C(=O)O [KFVRLKIYCRDKNKGRGISF]
